Values joined by “and” are separate entries in the source; they are usually repeats but may differ in a detail not shown here. Equal values may be shown once.
Columns and labels:
Assay type in all cases: in vivo
[1] = system: Chinese sprangletop (Leptochloa chinensis; LEFCH); assay: Postemergence herbicidal activity of mixtures in the greenhouse, visual weed control; settings: 21 DAA
Method: (§1) Evaluation of Postemergence Herbicidal Activity of Mixtures in the Greenhouse
(§2) Seeds of the desired test plant species were planted in 80% mineral soil/20% grit planting mixture, which typically has a pH of 7.2 and an organic matter content of about 2.9 percent, in plastic pots with a surface area of 128 square centimeters (cm^2). The growing medium was steam sterilized. The plants were grown for 7-19 days in a greenhouse with an approximate 14-hour (h) photoperiod which was maintained at about 29° C. during the day and 26° C. during the night. Nutrients and water were added on a regular basis and supplemental lighting was provided with overhead metal halide 1000-Watt lamps as necessary. The plants were treated with postemergence foliar applications when they reached the third to fourth true leaf stage. All treatments were applied using a randomized complete block trial design, with 4 replications per treatment.
(§3) Treatments consisted of the compounds as listed in Tables 1, 2, 4 and 5 with each compound applied alone and in combination. Formulated amounts of cyhalofop-butyl, metamifop, profoxydim and fluoroxypyr-meptyl ester, were placed in 60 milliliter (mL) glass vials and dissolved in a volume of 60 mL of a water solution containing Agri-dex crop oil concentrate in a 1% volume per volume (v/v) ratio. Compound requirements are based upon a 12 mL application volume at a rate of 187 liters per hectare (L/ha). Spray solutions of the mixtures were prepared by adding the stock solutions to the appropriate amount of dilution solution to form 12 mL spray solution with active ingredients in single and two way combinations. Formulated compounds were applied to the plant material with an overhead Mandel track sprayer equipped with 8002E nozzles calibrated to deliver 187 L/ha at a spray height of 18 inches ([…] (cm)) above average plant canopy.
(§4) The treated plants and control plants were placed in a greenhouse as described above and watered by sub-irrigation to prevent wash-off of the test compounds. Treatments were rated at 14 to 21 days after application as compared to the untreated control plants. Percent visual weed control was scored on a scale of 0 to 100 percent where 0 corresponds to no injury and 100 corresponds to complete kill.
(§5) Colby's equation was used to determine the herbicidal effects expected from the mixtures (Colby, S. R. Calculation of the synergistic and antagonistic response of herbicide combinations. Weeds 1967, 15, 20-22.).
(§6) The following equation was used to calculate the expected activity of mixtures containing two active ingredients, A and B: Expected=A+B−(A×B/100)
(§7) A=observed efficacy of active ingredient A at the same concentration as used in the mixture.
(§8) B=observed efficacy of active ingredient B at the same concentration as used in the mixture.

[2] = system: barnyardgrass (Echinochloa crus-galli; ECHCG); assay: as above
Method: as §1, §2, §3, §4, §5, §6, §7, §8

[3] = system: broadleaf signalgrass (Brachiaria platyphylla; BRAPP); assay: as above
Method: as §1, §2, §3, §4, §5, §6, §7, §8

[4] = system: giant foxtail (Setaria faberi; SETFA); assay: as above; settings: 21 DAA, Table 2
Method: as §1, §2, §3, §4, §5, §6, §7, §8

[5] = system: winklegrass (Ischaemum rugosum; ISCRU); assay: as above; settings: 14 DAA, Table 1
Method: as §1, §2, §3, §4, §5, §6, §7, §8

[6] = system: tighthead sprangletop (Leptochloa panicoides; LEFPA); assay: Postemergence herbicidal activity of mixtures in the field (drill-seeded rice), visual weed control; settings: 29-36 DAA, Table 3
Method: (§9) Evaluation of Postemergence Herbicidal Activity of Mixtures in the Field
(§10) Field trials were conducted in drill-seeded rice using standard herbicide small plot research methodology. Plots were typically 3×10 meters (m, width×length) in size with 4 replicates per treatment. The rice crop was grown using normal cultural practices for fertilization, seeding, watering, flooding and maintenance to ensure good growth of the crop and the weeds.
(§11) All treatments in the field trials were applied using a carbon dioxide (CO2) backpack sprayer calibrated to apply 187 L/ha spray volume. Commercially available products of cyhalofop-butyl and fluoroxypyr-meptyl were mixed in water at appropriately formulated product rates to achieve the desired rates based on a unit area of application (hectare) to achieve the desired application rates as shown. Treatments were rated at 29 to 36 days after application (DAA) as compared to the untreated control plants. Percent visual weed control was scored on a scale of 0 to 100 percent where 0 corresponds to no injury and 100 corresponds to complete kill.
(§12) All treatment results, both for the single product and mixtures, are an average of 4 replicates and the tank mix interactions are significant at the […] level using Tukey's T-test.
as §5, §6, §7, §8

[7] = system: barnyardgrass (Echinochloa crus-galli; ECHCG); assay: as above; settings: 29-36 DAA, Table 3
Method: as §9, §10, §11, §12, §5, §6, §7, §8

[8] = Metamifop 7.5 g ai/ha alone, 21 DAA, Table 4
[9] = Metamifop 15 g ai/ha alone, 21 DAA, Table 4
[10] = Fluroxypyr 50 g ae/ha alone, 21 DAA, Table 4
[11] = Fluroxypyr 70 g ae/ha alone, 14 DAA, Table 1
[12] = Fluroxypyr 100 g ae/ha alone, 21 DAA, Table 4
[13] = Fluroxypyr 200 g ae/ha alone, 21 DAA, Table 4

Structure (SMILES): CCCC(=NOCC(C)Oc1ccc(Cl)cc1)C1=C(O)CC(C2CCCSC2)CC1=O (stereo not shown) [Profoxydim, 2-[1-[[2-(4-chlorophenoxy)propoxy]imino]-butyl]-3-hydroxy-5-(tetrahydro-2H-thiopyran-3-yl)-2-cyclohexen-1-one]
- % Control LEFCH Ob ([1]; Profoxydim 25 g ai/ha alone, Table 5): 61%
- % Control LEFCH Ob ([1]; Profoxydim 50 g ai/ha alone, Table 5): 78%
- % Control ECHCG Ob ([2]; Profoxydim 25 g ai/ha alone, 21 DAA, Table 5): 54%

Structure (SMILES): C[C@@H](Oc1ccc(Oc2nc3ccc(Cl)cc3o2)cc1)C(=O)N(C)c1ccccc1F [Metamifop, (2R)-2-[4-[(6-chloro-2-benzoxazolyl)oxy]-phenoxy]-N-(2-fluorophenyl)-N-methylpropanamide]
- % Control LEFCH Ob ([1]; Metamifop 7.5 g ai/ha alone, Table 4): 23%
- % Control LEFCH Ob ([1]; Metamifop 30 g ai/ha alone, Table 4): 88%
- % Control BRAPP Ob [3, 8]: 25%
- % Control BRAPP Ob [3, 9]: 54%
- % Control ECHCG Ob [2, 8]: 5%
- % Control ECHCG Ob [2, 9]: 33%
- % Control ECHCG Ob ([2]; Metamifop 30 g ai/ha alone, 21 DAA, Table 4): 74%

Structure (SMILES): C[C@@H](Oc1ccc(Oc2ccc(C#N)cc2F)cc1)C(=O)O [Cyhalofop, (2R)-2-[4-(4-cyano-2-fluorophenoxy)phenoxy]-propanoic acid]
- % Control SETFA Ob ([4]; Cyhalofop 63 g ae/ha alone): 82%
- % Control LEFCH Ob ([1]; Cyhalofop 63 g ae/ha alone, Table 2): 67%
- % Control BRAPP Ob ([3]; Cyhalofop 253 g ae/ha alone, 14 DAA, Table 1): 77%
- % Control ISCRU Ob ([5]; Cyhalofop 126 g ae/ha alone): 15%
- % Control ECHCG Ob ([2]; Cyhalofop 63 g ae/ha alone, 14 DAA, Table 1): 55%
- % Control ECHCG Ob ([2]; Cyhalofop 126 g ae/ha alone, 14 DAA, Table 1): 73%
- % Control LEFPA Ob ([6]; Cyhalofop 262 g ae/ha alone): 33%
- % Control ECHCG Ob ([7]; Cyhalofop 262 g ae/ha alone): 67%

Structure (SMILES): Nc1c(Cl)c(F)nc(OCC(=O)O)c1Cl [Fluroxypyr, [(4-amino-3,5-dichloro-6-fluoro-2-pyridinyl)oxy]acetic acid]
- % Control SETFA Ob ([4]; Fluroxypyr 140 g ae/ha alone): 50%
- % Control LEFCH Ob ([1]; Fluroxypyr 50 g ae/ha alone, Table 4): 6%
- % Control LEFCH Ob ([1]; Fluroxypyr 70 g ae/ha alone, Table 2): 28%
- % Control LEFCH Ob ([1]; Fluroxypyr 100 g ae/ha alone, Table 5): 41%
- % Control LEFCH Ob ([1]; Fluroxypyr 140 g ae/ha alone, Table 2): 5%
- % Control LEFCH Ob ([1]; Fluroxypyr 200 g ae/ha alone, Table 4): 41%
- % Control LEFCH Ob ([1]; Fluroxypyr 200 g ae/ha alone, Table 5): 48% and 49%
- % Control BRAPP Ob [3, 10]: 5%
- % Control BRAPP Ob [3, 11]: 22%
- % Control BRAPP Ob [3, 12]: 1%
- % Control BRAPP Ob [3, 13]: 5%
- % Control ISCRU Ob ([5]; Fluroxypyr 140 g ae/ha alone): 15%
- % Control ECHCG Ob [2, 10]: 0%
- % Control ECHCG Ob ([2]; Fluroxypyr 50 g ae/ha alone, 21 DAA, Table 5): 0%
- % Control ECHCG Ob [2, 11]: 14%
- % Control ECHCG Ob [2, 12]: 11%
- % Control ECHCG Ob ([2]; Fluroxypyr 100 g ae/ha alone, 21 DAA, Table 5): 0%
- % Control ECHCG Ob ([2]; Fluroxypyr 140 g ae/ha alone, 14 DAA, Table 1): 9%
- % Control ECHCG Ob [2, 13]: 6%
- % Control ECHCG Ob ([2]; Fluroxypyr 200 g ae/ha alone, 21 DAA, Table 5): 5%
- % Control ECHCG Ob ([2]; Fluroxypyr 280 g ae/ha alone, 14 DAA, Table 1): 8%
- % Control LEFPA Ob ([6]; Fluroxypyr 190 g ae/ha alone): 0%
- % Control LEFPA Ob ([6]; Fluroxypyr 290 g ae/ha alone): 3%
- % Control LEFPA Ob ([6]; Fluroxypyr 580 g ae/ha alone): 0%
- % Control ECHCG Ob ([7]; Fluroxypyr 580 g ae/ha alone): 0%

From patent US8420571B2, “Synergistic herbicidal composition containing fluroxypyr and cyhalofop, metamifop or profoxydim” (Dow AgroSciences, LLC, priority 2009, dated 2013)
